In patent US10494405B2, “Methods and compositions for the treatment of arthritis” (THE REGENTS OF THE UNIVERSITY OF MICHIGAN, priority 2015, dated 2019):
Numbered stars: 1 amine (or outer) side, 2 acyl side, 3 side chain; on linkers, the order of the positions; unused ones are H or OH. Bridge positions count the residues as written; N and C are the ends. Square brackets hold non-standard residues; d marks the D form. Peptide text beside a SMILES is read from it. CO = O=C([*:1])[*:2]; Nlys = NCCCCNCC(=O)O

How the values were obtained:
SE-activated signaling = test: Inhibition of SE-activated signaling in vitro; type: cell-based; settings: read-out: IC50, inhibitor of SE-activated signaling
[1] = system: murine pre-OC cell line RAW 264.7; test: In vitro osteoclastogenesis, mouse cells (RAW 264.7); type: cell-based
Text: In vitro osteoclastogenesis of murine pre-OC cell line RAW 264.7 in the presence of different doses of BK2.

human cells = test: In vitro osteoclastogenesis, human cells; type: cell-based
DBA/1 mice with CIA = test: Collagen-induced arthritis (CIA) in DBA/1 mice; type: in vivo, mouse
Experimental: A. DBA/1 mice with CIA received weekly ip doses of BK2, 446 pg/gm, or PBS (black) starting on day −1 relative to day of CIA induction, and joint swelling was recorded. N=10 per group. B. DBA/1 mice with CIA received a total of 4 weekly ip doses of BK2, 446 pg/gm, or PBS (black) starting at day 20 relative to day of CIA induction, at the time of arthritis onset, and joint swelling was recorded. Arrows indicate the treatment days. N=10 per group. C. DBA/1 mice with CIA received weekly sq doses of BK2446 pg/gm, or PBS (black) starting at day −1 relative to day of CIA induction, and joint swelling was recorded. N=10 per group. […] E. DBA/1 mice with CIA received a total of 4 weekly sq doses of BK2, 446 pg/gm, or PBS (black) starting at day 20 relative to day of CIA induction, at the time of arthritis onset, and joint swelling was recorded. Arrows indicate the treatment days. N=10 per group.

IC50 (SE-activated signaling): ~10 mM
Compound: C[C@H](NC(=O)CN1CCCCNC(=O)NCCCCN(C(=O)[C@@H](N)Cc2c[nH]c3ccccc23)CC(=O)N[C@@H](CC(=O)O)C(=O)N[C@@H](CCCCN)C(=O)N[C@@H](CO)C1=O)C(N)=O [BK2, Trp-c[Gly(4-aminobutyl)-Asp-Lys-Ser-Gly(4-aminobutyl)]-Ala-NH2] (H-W[Nlys]DKS[Nlys]A-NH2; linker 2-6 via CO)
IC50 of anti-osteoclastogenic effect in vitro [1]: pM-range
IC50 of anti-osteoclastogenic effect in vitro (human cells): pM-range
Inhibition of bone destruction in vivo (DBA/1 mice with CIA; CIA mice): inhibition effect
Inhibition of osteoclastogenesis in vivo (DBA/1 mice with CIA; CIA mice): inhibition effect
Inhibition effect on CIA (joint swelling) (DBA/1 mice with CIA; DBA/1 mice, weekly ip or sq 446 pg/gm, from day -1 or day 20): highly potent (picogram-range doses) inhibition effect
Radiological scores (bone destruction) (DBA/1 mice with CIA; FIG. 3D: weekly sq 446 pg/gm starting day -1): protective effect on bone destruction
Radiological scores (bone destruction) (DBA/1 mice with CIA; FIG. 3F: 4 weekly sq doses 446 pg/gm starting day 20 (arthritis onset)): protective effect on bone destruction
